This passage reports relative viability results from the supplement of paper PMC10307832.

Common to all, as to test: relative viability (nuclei count vs DMSO), 5 days (fraction); higher = more cells survive
Compound in experiment [1]: CC1CC(=O)N(C2=CN=C(N=C2N1C3CCCC3)NC4=C(C=C(C=C4)C(=O)NC5CCN(CC5)C)OC)C [NPK76-II-72-1] + CCNC(=O)c1noc(-c2cc(C(C)C)c(O)cc2O)c1-c1ccc(CN2CCOCC2)cc1 [Luminespib] (partner 0.01 µM)
The essentials:
(§1)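 Dosing by pin tool came one day after lung cancer cell lines were seeded in 1536-well plates, using either one drug or a fixed anchor-drug dose plus five library-drug doses (not always all listed) in √10 steps. After 5 days, nuclei were counted on 4× images. Relative viability is treated-well nuclei count divided by vehicle-well nuclei count, and values are medians of duplicate plates.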

Compound in the experiment “BI-2536 + Palbociclib”: CC[C@@H]1C(=O)N(C)c2cnc(Nc3ccc(C(=O)NC4CCN(C)CC4)cc3OC)nc2N1C1CCCC1 [BI-2536] + CC(=O)c1c(C)c2cnc(Nc3ccc(N4CCNCC4)cn3)nc2n(C2CCCC2)c1=O [Palbociclib] (partner 0.5 µM)
A digest of the protocol:
as §1

Compound in the experiment “BI-2536 + Phenformin”: CC[C@@H]1C(=O)N(C)c2cnc(Nc3ccc(C(=O)NC4CCN(C)CC4)cc3OC)nc2N1C1CCCC1 [BI-2536] + N=C(N)NC(=N)NCCc1ccccc1 [Phenformin] (partner 250 µM)
The essentials: as §1

Compound in the experiment “BI-2536 + Olaparib”: CC[C@@H]1C(=O)N(C)c2cnc(Nc3ccc(C(=O)NC4CCN(C)CC4)cc3OC)nc2N1C1CCCC1 [BI-2536] + O=C(c1cc(Cc2n[nH]c(=O)c3ccccc23)ccc1F)N1CCN(C(=O)C2CC2)CC1 [Olaparib] (partner 8 µM)
A digest of the protocol: as §1

Turning to UMC-11, the relative viability was found to be 0.997 in experiment [1] (first compound 0.01 µM); 1 in experiment [1] (first compound 0.03162 µM); 0.934 in experiment [1] (first compound 0.1 µM); 0.988 in experiment [1] (first compound 1 µM); 0.295 in the experiment with BI-2536 + Palbociclib (first compound 0.01 µM); 0.295 with BI-2536 + Palbociclib (first compound 0.03162 µM). Moreover, the relative viability is 0.228 in the experiment with BI-2536 + Palbociclib (first compound 0.1 µM); 0.223 in the experiment with BI-2536 + Palbociclib (first compound 0.3162 µM); 0.23 in the experiment with BI-2536 + Palbociclib (first compound 1 µM); 0.286 with BI-2536 + Phenformin (first compound 0.01 µM); 0.233 with BI-2536 + Phenformin (first compound 0.03162 µM); 0.177 in the experiment with BI-2536 + Phenformin (first compound 0.1 µM). Besides, the relative viability with BI-2536 + Phenformin (first compound 0.3162 µM) came to 0.192; with BI-2536 + Phenformin (first compound 1 µM) it was 0.175; with BI-2536 + Olaparib (first compound 0.01 µM), 0.389; with BI-2536 + Olaparib (first compound 0.03162 µM) it was 0.414; in the experiment with BI-2536 + Olaparib (first compound 0.1 µM) it was 0.251; in the experiment with BI-2536 + Olaparib (first compound 0.3162 µM), 0.218. Further, the relative viability with BI-2536 + Olaparib (first compound 1 µM) is 0.209.
